Test results: patent publication US7387798B2, “Method and composition for resuscitation” (priority 2004, dated 2008)
Entries after “also recorded” stand apart in the source; their conditions may differ.

Tested on: not listed separately
Experiment: Neural protective effect of colloid osmotic agents and Polypeptides (stated, no method given)
Conditions: general statement, no experiment described

Compound | protecting the CNS tissue (neural protective effect)
Dextran | ineffective; also recorded: do not confer neuroprotective effect
Collagen | effective
albumin | effective
Hetastarch | ineffective

Tested on: cultured neurons
Experiment: not given
Conditions: continuous application, 100 μM; cited from earlier work

Compound | axonal transport of membrane-bound organelles in anterograde and retrograde directions
O=c1ccn([C@@H]2O[C@H](COP(=O)(O)OP(=O)(O)OP(=O)(O)O)[C@@H](O)[C@H]2O)c(=O)[nH]1 [Uridine 5′-triphosphate] | effect similar to ATP
Nc1ncnc2c1ncn2[C@@H]1O[C@H](COP(=O)(O)OP(=O)(O)OP(=O)(O)O)[C@@H](O)[C@H]1O [ATP, Adenosine 5′-triphosphate] | significantly increased
